Experimental data reported in patent US20030114403A1, “Method for treatment of cancers and antineoplastic pharmaceutical formulations” (CANADA Inc., priority 2001, published 2003).

Key:
[1] = test system: Ehrlich ascites; assay: Ehrlich ascites in A2G mice, single intraperitoneal treatment; settings: for toxic side effects: animals followed up to one month
Description: Normal A2G mice were transplanted 24 hours prior to treatment with 1,000,000 Ehrlich ascites cells. Treatment procedures consisted of a single intraperitoneal injection of malachite green 4/mg/kg or brilliant green 2 mg/kg, with or without 0.7% levorotatory lactic acid.
A lot of 50 A2G mice with a bodyweight of approximately 25 g each were infected with Ehrlich ascites 48 hours prior to treatment. Treatment consisted of one intraperitoneal injection of 1.0 cm^3 brilliant green 1:20,000 solution (2 mg per kilogram) or 1.0 cm^3 of malachite green 1:10,000 (4 mg per kilogram), with 0.7% levorotatory lactic acid.

[2] = test system: Ehrlich ascites cells; assay: Transmission electron microscopy of Ehrlich ascites cells from intraperitoneal liquid after treatment; type: cell-based, A2G mice
[3] = single intraperitoneal injection, malachite green 4/mg/kg or brilliant green 2 mg/kg, with or without 0.7% levorotatory lactic acid

| Compound | resolution of Ehrlich ascites [1, 3] | toxic side effects [1, 3] | effect of blocking malignancies ([1]; with lactic acid as specific vector and metabolite, in vitro and in vivo) | inactivation of malignant cells (electron microscope study of intraperitoneal liquid samples) ([2]; one i.p. injection of brilliant green 1:20,000 (2 mg per kilogram) or malachite green 1:10,000 (4 mg per kilogram) with 0.7% levorotatory lactic acid, samples at different times) | lipid droplet synthesis (TEM) ([2]; twenty-four hours after the treatment) | morphology (TEM) of ascites cells in peritoneal fluid ([2]; two weeks post treatment) |
| --- | --- | --- | --- | --- | --- | --- |
| CN(C)c1ccc(C(=C2C=CC(=[N+](C)C)C=C2)c2ccccc2)cc1 [malachite green] | ability to resolve Ehrlich ascites | no obvious toxic side effects were observed | irreversible effect of blocking malignancies both in vitro and in vivo | complete inactivation of the malignant cells | slowed down | characteristic cytostatic morphology consistent with interruption of cell cycling |
| CCN(CC)c1ccc(C(=C2C=CC(=[N+](CC)CC)C=C2)c2ccccc2)cc1 [brilliant green] | – | no obvious toxic side effects were observed | – | – | – | – |
